According to PubChem BioAssay AID256 (DTP/NCI, 2004):
“And” between values parts separate entries of the source, which are not always exact repeats. Equal values may be shown once. Toxic doses and inconclusive results are not listed. Rule for the calls: active = survival T/C of 150% or more; inactive = T/C below 125% in these data.

Test system: CD2F1 mice, L1210 leukemia ip, survival T/C
Test: NCI In Vivo Anticancer Drug Screen. Data for tumor model L1210 Leukemia (intraperitoneal) in CD2F1 (CDF1) mice
Conditions: endpoint: mean survival time, higher = longer survival
How it was run: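 Mice carrying a transplanted tumor received test compound or vehicle alone. The value is the measurement in the treated group divided by that in the vehicle-treated control group.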

[1] = dose: 100.0 mg/kg/injection, schedule: Q04DX003 (ip), vehicle: saline
[2] = dose: 200.0 mg/kg/injection, schedule: Q04DX003 (ip), vehicle: saline
[3] = dose: 100.0 mg/kg/injection, schedule: Q01DX009 (ip), vehicle: saline with Tween-80
[4] = dose: 100.0 mg/kg/injection, schedule: Q04DX003 (ip), vehicle: saline with Tween-80
[5] = dose: 200.0 mg/kg/injection, schedule: Q01DX009 (ip), vehicle: saline with Tween-80
[6] = dose: 200.0 mg/kg/injection, schedule: Q04DX003 (ip), vehicle: saline with Tween-80
[7] = dose: 400.0 mg/kg/injection, schedule: Q04DX003 (ip), vehicle: saline with Tween-80

Measured: T/C

CC(=O)Oc1ccc2c(c1)C(=O)CCCCCC(=O)O2
inactive: dose: 12.5 mg/kg/injection, schedule: Q01DX009 (ip), vehicle: saline 100 % of control | dose: 12.5 mg/kg/injection, schedule: Q04DX003 (ip), vehicle: saline 97 % of control | dose: 25.0 mg/kg/injection, schedule: Q01DX001 (ip), vehicle: saline 98 % of control | dose: 25.0 mg/kg/injection, schedule: Q01DX009 (ip), vehicle: saline 97 % of control | dose: 25.0 mg/kg/injection, schedule: Q04DX003 (ip), vehicle: saline 98 % of control | dose: 50.0 mg/kg/injection, schedule: Q01DX001 (ip), vehicle: saline 110 % of control | dose: 50.0 mg/kg/injection, schedule: Q01DX009 (ip), vehicle: saline 94 % of control | dose: 50.0 mg/kg/injection, schedule: Q04DX003 (ip), vehicle: saline 111 % of control | dose: 100.0 mg/kg/injection, schedule: Q01DX001 (ip), vehicle: saline 98 % of control | dose: 100.0 mg/kg/injection, schedule: Q01DX009 (ip), vehicle: saline 95 % of control | [1] 120 % of control | dose: 200.0 mg/kg/injection, schedule: Q01DX001 (ip), vehicle: saline 100 % of control | dose: 200.0 mg/kg/injection, schedule: Q01DX009 (ip), vehicle: saline 89 % of control | [2] 102 % of control | dose: 400.0 mg/kg/injection, schedule: Q01DX001 (ip), vehicle: saline 111 % of control

Cc1cccc(N)n1
inactive: dose: 3.13 mg/kg/injection, schedule: Q04DX002 (ip), vehicle: saline 94 % of control | dose: 6.25 mg/kg/injection, schedule: Q04DX002 (ip), vehicle: saline 90 % of control | dose: 12.5 mg/kg/injection, schedule: Q04DX002 (ip), vehicle: saline 90 % of control

CSc1ccnc2ccccc12
inactive: dose: 12.5 mg/kg/injection, schedule: Q01DX009 (ip), vehicle: other 106 % of control | dose: 25.0 mg/kg/injection, schedule: Q01DX009 (ip), vehicle: other 100 % of control | dose: 50.0 mg/kg/injection, schedule: Q01DX009 (ip), vehicle: other 103 % of control

COC(=O)c1cccn1C(=O)c1cc(OC)c(OC)cc1[N+](=O)[O-]
inactive: dose: 50.0 mg/kg/injection, schedule: Q04DX002 (ip), vehicle: saline with Tween-80 96 % of control | dose: 100.0 mg/kg/injection, schedule: Q04DX002 (ip), vehicle: saline with Tween-80 92 % of control and 93 % of control | dose: 200.0 mg/kg/injection, schedule: Q04DX002 (ip), vehicle: saline with Tween-80 96 % of control | dose: 400.0 mg/kg/injection, schedule: Q04DX002 (ip), vehicle: saline with Tween-80 89 % of control

COc1ccc(OC)cc1
inactive: dose: 100.0 mg/kg/injection, schedule: Q01DX001 (ip), vehicle: other 103 % of control | dose: 200.0 mg/kg/injection, schedule: Q01DX001 (ip), vehicle: other 94 % of control | dose: 400.0 mg/kg/injection, schedule: Q01DX001 (ip), vehicle: other 101 % of control

COc1ccc(/C=C\[N+](=O)[O-])cc1OC
inactive: dose: 100.0 mg/kg/injection, schedule: Q04DX003 (ip), vehicle: Klucel (hydroxypropylcellulose) (HPC) 101 % of control | dose: 200.0 mg/kg/injection, schedule: Q04DX003 (ip), vehicle: Klucel (hydroxypropylcellulose) (HPC) 104 % of control | dose: 400.0 mg/kg/injection, schedule: Q04DX003 (ip), vehicle: Klucel (hydroxypropylcellulose) (HPC) 101 % of control

CCOC(=O)CC1(O)CCCCC1
inactive: [3] 101 % of control | [4] 100 % of control | [5] 101 % of control | [6] 101 % of control | dose: 400.0 mg/kg/injection, schedule: Q01DX009 (ip), vehicle: saline with Tween-80 100 % of control | [7] 97 % of control

CCCCCC(O)CCC(=O)NN (stereo not drawn)
inactive: [1] 100 % of control | [2] 117 % of control

CCOC(=O)C1=C(C)/C(=C/c2[n-]c(C)c(C(=O)OCC)c2C)N=C1C.CCOC(=O)C1=C(C)/C(=C/c2[n-]c(C)c(C(=O)OCC)c2C)N=C1C.[Co+2]
inactive: dose: 50.0 mg/kg/injection, schedule: Q01DX001 (ip), vehicle: saline with Tween-80 91 % of control | dose: 200.0 mg/kg/injection, schedule: Q01DX001 (ip), vehicle: saline with Tween-80 87 % of control | dose: 400.0 mg/kg/injection, schedule: Q01DX001 (ip), vehicle: saline with Tween-80 91 % of control

O=C(O)CCC(=O)CC1CCCCC1
inactive: dose: 50.0 mg/kg/injection, schedule: Q01DX009 (ip), vehicle: saline with Tween-80 98 % of control | [3] 105 % of control | [5] 98 % of control

COc1ccc(Cl)cc1[N+](=O)[O-]
inactive: [4] 97 % of control | [6] 94 % of control | [7] 95 % of control
